From ChEMBL document CHEMBL2062415, “Steroids from Commiphora mukul display antiproliferative effect against human prostate cancer PC3 cells via induction of apoptosis” (Bioorg Med Chem Lett, 2012) come the findings set out here.

Activity calls are given as the source filed them. The rule behind the calls is not given here.

By IC50 is commonly meant the concentration at which inhibition is half-maximal. Read a low IC50 as inhibition by little substance.

Assay [1] concerns K562. The experiment in a line: Induction of apoptosis in human K562 cells assessed as accumulation at S phase at 1 uM after 48 hrs by propidium iodide staining-based flow cytometric analysis (reference value: 45.67%). The format is functional. For orientation: A flow cytometer gives signals particle by particle.
Assay [2] deals with PC-3. The experiment in a line: Inhibition of cyclin A protein expression in human PC3 cells at 20 uM after 48 hrs by Western blot analysis. The assay is classed as functional, cell-based. Background: Immunoblotting shows a protein as a band on a membrane.
For assay [3], the system named is K562. The experiment in a line: Induction of apoptosis in human K562 cells assessed as early apoptotic cells at 1 uM after 48 hrs by annexinV/propidium iodide staining-based FITC analysis (reference value: 2.08%). The assay is classed as functional.
Assay [4] deals with PC-3. The experiment in a line: Cell cycle arrest in human PC3 cells assessed as accumulation at G2/M phase at 5 uM after 48 hrs by propidium iodide staining-based flow cytometric analysis relative to control. The assay is classed as functional.
The subject of assay [5] is MCF7. The assay can be described thus: Induction of apoptosis in human MCF7 cells assessed as accumulation at S phase at 10 uM after 48 hrs by propidium iodide staining-based flow cytometric analysis (reference value: 22.99%). The format is functional.
Assay [6] has as its system MCF7. The assay can be described thus: Induction of apoptosis in human MCF7 cells assessed as late apoptotic cells at 20 uM after 48 hrs by annexinV/propidium iodide staining-based FITC analysis (reference value: 3.57%). The format is functional.
For assay [7], the system named is K562. The assay can be described thus: Cytotoxicity against human K562 cells after 24 hrs by MTT assay. The format is functional, cell-based. To be noted: K562, 24 h.
In assay [8] the test system is DU-145. The experiment in a line: Induction of apoptosis in human DU145 cells assessed as accumulation at G2/M phase at 10 uM after 48 hrs by propidium iodide staining-based flow cytometric analysis (reference value: 16.14%). The assay is classed as functional.
Assay [9] has as its system DU-145. The assay can be described thus: Induction of apoptosis in human DU145 cells assessed as necrotic cells at 10 uM after 48 hrs by annexinV/propidium iodide staining-based FITC analysis (reference value: 0.35%). The assay is classed as functional.
In assay [10] the test system is DU-145. The assay can be described thus: Induction of apoptosis in human DU145 cells assessed as necrotic cells at 40 uM after 48 hrs by annexinV/propidium iodide staining-based FITC analysis (reference value: 0.35%). The format is functional.
Assay [11] concerns K562. The experiment in a line: Induction of apoptosis in human K562 cells assessed as accumulation at G2/M phase at 10 uM after 48 hrs by propidium iodide staining-based flow cytometric analysis (reference value: 15.72%). The format is functional.
Assay [12] deals with PC-3. The experiment in a line: Cell cycle arrest in human PC3 cells assessed as accumulation at G0/G1 phase at 5 uM after 48 hrs by propidium iodide staining-based flow cytometric analysis relative to control. The assay is classed as functional.
For assay [13], the system named is PC-3. The assay can be described thus: Induction of apoptosis in human PC3 cells assessed as cleavage of caspase 3 at 5 to 20 uM after 48 hrs by Western blot analysis. The assay is classed as functional, cell-based.
Assay [14] deals with DU-145. The assay can be described thus: Induction of apoptosis in human DU145 cells assessed as early apoptotic cells at 10 uM after 48 hrs by annexinV/propidium iodide staining-based FITC analysis (reference value: 2.34%). The format is functional.

On to `CC[C@H](/C=C/[C@@H](C)[C@H]1CC[C@H]2[C@H]3[C@H]([C@H](O)C[C@]12C)[C@@]1(C)CC[C@H](O)CC1=C[C@H]3O)C(C)C`, for which the Activity in assay [1] was 45.77%; in assay [3], 1.99%; in assay [4], 14.11%; in assay [5], 18.92%; in assay [6], 6.76%; in assay [8] it was 21.4%. For the same compound, the Activity is 0.28% in assay [9]; 8.01% in [10]; 12.11% in assay [11]; 59% in [12]; 4.02% in [14]. In addition, the inhibition result in [2] is “Active”. The compound also returned an IC50 in assay [7] of 5.21 µM. Besides, the result in [13] was Active.
